In patent US20250304563A1, “ACTIVATORS OF EFFECTOR T CELLS” (Orum Therapeutics, Inc., priority 2022, published 2025):

Assays:
[1] = tested on: Human primary T cells; assay: T cell activation: CD69 surface expression by flow cytometry; format: cell-based; settings: fold over anti-CD3 stimulated background normalized to Compound 141A; for CD69 10 nM: 10 nM compound; for CD69 100 nM: 100 nM compound
Procedure, shortened: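 Negatively selected human primary T cells (1×10^5/well, XVivo-15) were captured on plates coated with 10 μg/mL anti-CD3 (OKT3). They were exposed to serially diluted compounds in duplicate for 48 h at 37° C. CD69 was read by flow cytometry as fold over anti-CD3-only background, normalized to Compound 141A and binned into ranges.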

[2] = tested on: Human primary T cells; assay: T cell activation: secreted IL-2; format: cell-based; settings: 48 hours, fold over background normalized to Compound 141A; for IL-2 1 nM: 1 nM compound; for IL-2 10 nM: 10 nM compound; for IL-2 100 nM: 100 nM compound
Procedure, shortened: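 Negatively selected human primary T cells on plate-bound anti-CD3 (OKT3) in serum-free medium, treated 48 h at 37° C. with serial compound dilutions in duplicate. Secreted IL-2 by bead-based cytometric assay, expressed as fold over anti-CD3/CD28 background normalized to a reference compound, then binned into ranges.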

[3] = tested on: Human primary T cells; assay: T cell activation: secreted IFN-y; format: cell-based; settings: 48 hours, fold over background normalized to Compound 141A; for IFN-y 1 nM: 1 nM compound; for IFN-y 10 nM: 10 nM compound; for IFN-y 100 nM: 100 nM compound
Procedure, shortened: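 Negatively selected primary human T cells (1×10^5/well, serum-free XVivo-15) on plates coated with 10 μg/mL anti-CD3 were exposed to serial compound dilutions for 48 h at 37 °C. Secreted IFN-γ was measured by cytometric bead array and expressed as fold over anti-CD3/CD28 background, normalized to a reference compound and binned into ranges A–D.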

[4] = target: Cbl-b (36-427 aa truncated form, N-terminus Avi-tag) (Homo sapiens (Human), UniProt Q13191); assay: Cbl-b binding: TR-FRET displacement of BODIPY-FL probe
Procedure, shortened: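 Avi-tagged Cbl-b 36-427 preincubated 1 h at RT with streptavidin-terbium in HEPES pH 7.5/NaCl/Triton/BSA/TCEP buffer, then 1 uM BODIPY-FL inhibitor probe plus compound added for 1 h. Probe displacement read by TR-FRET; IC50 fitted.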

Sequence of Cbl-b (36-427 aa truncated form, N-terminus Avi-tag) (Q13191 36-427): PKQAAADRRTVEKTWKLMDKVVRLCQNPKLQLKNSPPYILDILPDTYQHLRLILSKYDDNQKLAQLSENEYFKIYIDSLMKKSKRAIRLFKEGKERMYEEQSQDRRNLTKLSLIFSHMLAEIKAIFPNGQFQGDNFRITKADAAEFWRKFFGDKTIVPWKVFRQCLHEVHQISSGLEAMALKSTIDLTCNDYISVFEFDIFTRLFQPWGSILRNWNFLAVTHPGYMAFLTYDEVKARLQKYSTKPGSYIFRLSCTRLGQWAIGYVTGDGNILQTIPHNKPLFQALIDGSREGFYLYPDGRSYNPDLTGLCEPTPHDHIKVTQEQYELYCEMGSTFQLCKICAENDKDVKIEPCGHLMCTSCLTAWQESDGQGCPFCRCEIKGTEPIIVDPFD

SMILES | IC50 [4] | CD69 10 nM [1] | CD69 100 nM [1] | IL-2 1 nM [2] | IL-2 10 nM [2] | IL-2 100 nM [2] | IFN-y 1 nM [3] | IFN-y 10 nM [3] | IFN-y 100 nM [3] | CD69 1 nM ([1]; 1 nM compound)
C[C@H]1CCCN(Cc2cc3c(c(C(F)(F)F)c2)CN(c2cc(C4(Cc5nncn5C)COC4)cc(OCCCC#N)n2)C3=O)C1.O=C(O)C(F)(F)F [Compound 122, 4-[(4-{3-[(4-methyl-1,2,4-triazol-3-yl)methyl]oxetan-3-yl}-6-(6-{[(3S)-3-methylpiperidin-1-yl]methyl}-1-oxo-4-(trifluoromethyl)-3H-isoindol-2-yl)pyridin-2-yl)oxy]butanenitrile; trifluoroacetic acid] | 1 to 5 nM | B (values between 0.61 and 0.80: range “B;”) | A (values between 0.81 and 1.10: range “A”) | C (values between 0.10 and 0.30: range “C”) | B (values between 0.31 and 0.79: range “B”) | B (values between 0.31 and 0.79: range “B”) | C (values between 0.10 and 0.30: range “C”) | B (values between 0.31 and 1.00: range “B;”) | B (values between 0.31 and 1.00: range “B;”) | –
C[C@H]1CCCN(Cc2cc3c(c(C(F)(F)F)c2)CN(c2cc(C4(Cc5nncn5C)COC4)cc(NCCN=[N+]=[N-])n2)C3=O)C1 [Compound 118, 2-{6-[(2-azidoethyl)amino]-4-{3-[(4-methyl-1,2,4-triazol-3-yl)methyl]oxetan-3-yl}pyridin-2-yl}-6-{[(3S)-3-methylpiperidin-1-yl]methyl}-4-(trifluoromethyl)-3H-isoindol-1-one] | 1 to 5 nM | A (values between 0.81 and 1.10: range “A”) | A (values between 0.81 and 1.10: range “A”) | B (values between 0.31 and 0.79: range “B”) | B (values between 0.31 and 0.79: range “B”) | A (between 0.80 and 1.40: range “A”) | B (values between 0.31 and 1.00: range “B;”) | A (fold over background between 1.10 and 2.00: range “A”) | A (fold over background between 1.10 and 2.00: range “A”) | –
CCSc1cc(C2(c3nncn3C)CC(C)C2)cc(N2Cc3c(cc(CN4CCC[C@H](C)C4)cc3C(F)(F)F)C2=O)n1 (stereo partly drawn) [Compound 113, 2-[6-(ethylsulfanyl)-4-[(1s,3r)-3-methyl-1-(4-methyl-1,2,4-triazol-3-yl)cyclobutyl]pyridin-2-yl]-6-{[(3S)-3-methylpiperidin-1-yl]methyl}-4-(trifluoromethyl)-3H-isoindol-1-one] | 20 to 100 nM | B (values between 0.61 and 0.80: range “B;”) | A (values between 0.81 and 1.10: range “A”) | C (values between 0.10 and 0.30: range “C”) | B (values between 0.31 and 0.79: range “B”) | B (values between 0.31 and 0.79: range “B”) | C (values between 0.10 and 0.30: range “C”) | B (values between 0.31 and 1.00: range “B;”) | B (values between 0.31 and 1.00: range “B;”) | –
C[C@H]1CCCN(Cc2cc3c(c(C(F)(F)F)c2)CN(c2cc(C4(Cc5nncn5C)COC4)cc(SCCC(=O)O)n2)C3=O)C1 [Compound 124, 3-[(4-{3-[(4-methyl-1,2,4-triazol-3-yl)methyl]oxetan-3-yl}-6-(6-{[(3S)-3-methylpiperidin-1-yl]methyl}-1-oxo-4-(trifluoromethyl)-3H-isoindol-2-yl)pyridin-2-yl)sulfanyl]propanoic acid] | 100 to 1000 nM | C (values between 0.30 and 0.60: range “C”) | C (values between 0.30 and 0.60: range “C”) | C (values between 0.10 and 0.30: range “C”) | C (values between 0.10 and 0.30: range “C”) | C (values between 0.10 and 0.30: range “C”) | C (values between 0.10 and 0.30: range “C”) | C (values between 0.10 and 0.30: range “C”) | C (values between 0.10 and 0.30: range “C”) | –
CCSc1cc(C2(c3nncn3C)CC(C)C2)cc(N2Cc3c(cc(CN4CCC[C@H](C)C4)cc3C(F)(F)F)C2=O)n1 (stereo partly drawn) [Compound 112, 2-[6-(ethylsulfanyl)-4-[(1r,3s)-3-methyl-1-(4-methyl-1,2,4-triazol-3-yl)cyclobutyl]pyridin-2-yl]-6-{[(3S)-3-methylpiperidin-1-yl]methyl}-4-(trifluoromethyl)-3H-isoindol-1-one] | 20 to 100 nM | C (values between 0.30 and 0.60: range “C”) | B (values between 0.61 and 0.80: range “B;”) | C (values between 0.10 and 0.30: range “C”) | C (values between 0.10 and 0.30: range “C”) | B (values between 0.31 and 0.79: range “B”) | C (values between 0.10 and 0.30: range “C”) | B (values between 0.31 and 1.00: range “B;”) | B (values between 0.31 and 1.00: range “B;”) | –

Continued, in another order:

IC50 [4] | SMILES | CD69 10 nM [1] | CD69 100 nM [1] | IL-2 1 nM [2] | IL-2 10 nM [2] | IL-2 100 nM [2] | IFN-y 1 nM [3] | IFN-y 10 nM [3] | IFN-y 100 nM [3] | CD69 1 nM ([1]; 1 nM compound)
5.01 to 20 nM | Cn1cnnc1CC1(c2cc(NCCC#N)nc(N3Cc4c(cc(CN5CCCC6OCCC65)cc4C(F)(F)F)C3=O)c2)COC1 (stereo not shown) [Compound 162, 3-{[6-(6-{hexahydro-2H-furo[3,2-b]pyridin-4-ylmethyl}-1-oxo-4-(trifluoromethyl)-3H-isoindol-2-yl)-4-{3-[(4-methyl-1,2,4-triazol-3-yl)methyl]oxetan-3-yl}pyridin-2-yl]amino}propanenitrile] | C (values between 0.30 and 0.60: range “C”) | C (values between 0.30 and 0.60: range “C”) | D (values between 0.01 and 0.09: range “D.”) | D (values between 0.01 and 0.09: range “D.”) | D (values between 0.01 and 0.09: range “D.”) | C (values between 0.10 and 0.30: range “C”) | B (values between 0.31 and 1.00: range “B;”) | B (values between 0.31 and 1.00: range “B;”) | C (values between 0.30 and 0.60: range “C”)
5.01 to 20 nM | C[C@H]1CCCN(Cc2cc3c(c(C(F)(F)F)c2)CN(c2cc(C4(Cc5nncn5C)COC4)cc(N4CCN(C(=O)CCCN=[N+]=[N-])CC4)n2)C3=O)C1 [Compound 136, (S)-2-(6-(4-(4-azidobutanoyl)piperazin-1-yl)-4-(3-((4-methyl-4H-1,2,4-triazol-3-yl)methyl)oxetan-3-yl)pyridin-2-yl)-6-((3-methylpiperidin-1-yl)methyl)-4-(trifluoromethyl)isoindolin-1-one] | B (values between 0.61 and 0.80: range “B;”) | A (values between 0.81 and 1.10: range “A”) | C (values between 0.10 and 0.30: range “C”) | B (values between 0.31 and 0.79: range “B”) | B (values between 0.31 and 0.79: range “B”) | C (values between 0.10 and 0.30: range “C”) | B (values between 0.31 and 1.00: range “B;”) | B (values between 0.31 and 1.00: range “B;”) | –
